# Data as given in patent US5426103A, “Certain macrocyclic lactam derivatives” (Ciba-Geigy Corporation, priority 1993, dated 1995).
# Assays:
# [1] = system: plasma ANF; test: effect on rat plasma ANF concentration in ANF-infused conscious rats; assay type: in vivo, rat (male Sprague-Dawley); conditions: about 1-10 mg/kg p.o., ANF infusion 450 ng/kg/min i.v.
# Experimental: The effect of the compounds of the invention on rat plasma ANF concentration can be determined as follows:
# Male Sprague-Dawley rats (275-390 g) are anesthetized with ketamine (150 mg/kg)/acepromazine (10%) and instrumented with catheters in the femoral artery and vein to obtain blood samples and infuse ANF, respectively. The rats are tethered with a swivel system and are allowed to recover for 24 hours before being studied in the conscious, unrestrained state.
# In this assay, plasma ANF levels are determined in the presence and absence of NEP inhibition. On the day of study, all rats are infused continuously with ANF at 450 ng/kg/min. i.v. for the entire 5 hours of the experiment. Sixty minutes after beginning the infusion, blood samples for baseline ANF measurements are obtained (time 0) and the rats are then randomly divided into groups treated with the test compound or vehicle. Additional blood samples are taken 30, 60, 120, 180 and 240 minutes after administration of the test compound.
# Plasma concentrations are determined by a specific radioimmunoassay. […] The supermatant is decanted and the pellets counted in a gamma counter. […] Plasma ANF levels are expressed as a percent of those measured in vehicle-treated animals which received ANF alone (450 ng/kg/min i.v.).
# [2] = system: DOCA-salt hypertensive rats; test: antihypertensive effect in DOCA-salt hypertensive rats; assay type: in vivo; conditions: DOCA-salt hypertensive rat, 30 mg/kg p.o. in 3% corn starch
# Experimental: The antihypertensive effect can be determined in desoxycorticosterone acetate (DOCA)-salt hypertensive rats. DOCA-salt hypertensive rats (280-380 g) are prepared by the standard method. Rats underwent a unilateral nephrectomy and one week later are implanted with silastic pellets containing 100 mg/kg of DOCA. The rats are maintained on 1% NaCl/0.2% KCl drinking water for three to five weeks until sustained hypertension is established. The antihypertensive activity is evaluated at this time. Two days before an experiment, the rats are anesthetized with methoxyflurane and instrumented with catheters in the femoral artery to measure arterial blood pressure. Forty-eight hours later, baseline arterial pressure and heart rate are recorded during a 1 hour period. The test compound (30 mg/kg p.o.) or vehicle is then administered and the same cardiovascular parameters are monitored for an additional 5 hours.
# [3] = system: ANF-induced natriuresis; test: potentiation of the natriuretic effect of ANF in anesthetized rats; assay type: in vivo, rat (male Sprague-Dawley); conditions: rat, 30 mg/kg in polyethylene glycol 400, intraduodenally; ANF 1 μg/kg i.v. bolus
# Experimental: The potentiation of the natriuretic effect of ANF can be determined as follows: Male Sprague-Dawley rats (280-360 g) are anesthetized with Inactin (100 mg/kg i.p.) and instrumented with catheters in the femoral artery, femoral vein and urinary bladder to measure arterial pressure, administer ANF and collect urine, respectively. A continuous infusion of normal saline (33 μl/min) is maintained throughout the experiment to promote diuresis and sodium excretion. The experimental protocol consists of an initial 15 minute collection period (designated as pre-control) followed by three additional collection periods. Immediately after completion of the pre-control period, test compound or vehicle is administered; nothing is done for the next 45 minutes. […] At the conclusion of this period, ANF is administered (1 μg/kg i.v. bolus) to all animals and arterial pressure and renal parameters are determined during two consecutive 15 minutes collection periods. Mean arterial pressure, urine flow and urinary sodium excretion are determined for all collection periods. Blood pressure is measured with a Gould p50 pressure transducer, urine flow is determined gravimetrically, sodium concentration is measured by flame photometry, and urinary sodium excretion is calculated as the product of urine flow and urine sodium concentration.
compound,measurement,setting,value
CC(=O)SC[C@H]1CCCCCC[C@H](C(=O)N2C[C@H](O)C[C@H]2C(=O)OCc2ccccc2)NC1=O [N-[[trans 3-(acetylthiomethyl)-2-oxo-1-azacyclodecan-10-yl]-carbonyl]-trans-4-hydroxy-L-proline benzyl ester],increase in plasma ANF levels,[1],significant increases in plasma ANF levels
same,reduction in blood pressure,[2],significant reduction in blood pressure
same,potentiation of ANF-induced natriuresis,[3],significant potentiation of ANF-induced natriuresis
